In BindingDB's records for doi:10.1021/jm00402a012 (Harvard Medical School, 1988):

Assay: Inhibition of Folyl-polyglutamate synthase from mouse liver

Row | Ki [µM] | SMILES
1 | 45 | Nc1nc(N)c2nc(CNc3ccc(C(=O)NC(CCS(=O)(=O)O)C(=O)O)cc3)cnc2n1 (stereo not drawn) [2-{4-[(2,4-Diamino-pteridin-6-ylmethyl)-amino]-benzoylamino}-4-sulfo-butyric acid]
2 | 185 | CN(Cc1cnc2nc(N)nc(N)c2n1)c1ccc(C(=O)NC(CCP(=O)(O)O)C(=O)O)cc1 (stereo not drawn) [2-{4-[(2,4-Diamino-pteridin-6-ylmethyl)-methyl-amino]-benzoylamino}-4-phosphono-butyric acid]
3 | 188 | CN(Cc1cnc2nc(N)nc(N)c2n1)c1ccc(C(=O)NC(CCS(=O)(=O)O)C(=O)O)cc1 (stereo not drawn) [2-{4-[(2,4-Diamino-pteridin-6-ylmethyl)-methyl-amino]-benzoylamino}-4-sulfo-butyric acid]
